The test system of assay [1] is IL-23-stimulated phosphorylated STAT3 in peripheral blood mononuclear cells (PBMCs). Briefly: PBMC pSTAT3 Assay. To be noted: PBMCs from healthy donors; 30 min preincubation with peptide; IL-23 5 ng/mL for 30 min; phospho-STAT3 by MSD. The assay is classed as cell-based. In a few lines: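 Phospho-STAT3 quantified by Meso Scale assay in lysates of PBMCs exposed to IL-23 (5 ng/mL, 30 min, 37 °C) after 30 min peptide pretreatment. Cells were cryopreserved donor PBMCs activated 4 days with anti-CD3 plus IL-1β (100 ng/mL) and starved ~4 h; IC50 reported.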

The target of a further assay is T1, IL-23R (Homo sapiens, UniProt Q5VWK5).
T1 construct: HEK293 cells containing IL-23R, IL-12Rβ1 and a firefly luciferase reporter gene driven by a STAT-inducible promoter (Promega); host or cells: HEK293
T1 sequence (Q5VWK5 24-629): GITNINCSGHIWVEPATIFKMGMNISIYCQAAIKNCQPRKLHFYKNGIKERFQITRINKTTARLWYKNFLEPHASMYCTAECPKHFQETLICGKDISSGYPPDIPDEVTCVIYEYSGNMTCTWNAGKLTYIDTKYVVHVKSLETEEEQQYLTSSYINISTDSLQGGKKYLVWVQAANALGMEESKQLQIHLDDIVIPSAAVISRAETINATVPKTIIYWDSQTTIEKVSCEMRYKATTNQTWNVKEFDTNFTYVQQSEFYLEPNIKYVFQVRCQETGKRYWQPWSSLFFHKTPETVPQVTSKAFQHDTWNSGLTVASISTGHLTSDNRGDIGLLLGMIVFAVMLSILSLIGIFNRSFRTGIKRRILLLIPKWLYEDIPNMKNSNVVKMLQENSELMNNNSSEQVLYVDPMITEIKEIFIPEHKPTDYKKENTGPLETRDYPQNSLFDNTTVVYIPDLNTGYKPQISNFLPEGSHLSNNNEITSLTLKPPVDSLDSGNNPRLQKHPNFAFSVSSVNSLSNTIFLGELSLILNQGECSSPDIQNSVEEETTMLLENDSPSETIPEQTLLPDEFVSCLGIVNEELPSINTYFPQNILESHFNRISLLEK
Briefly: IL23R Reporter Assay. It is filed as cell-based. To be noted: HEK293 cells containing IL-23R, IL-12Rβ1 and STAT-inducible firefly luciferase reporter; 10 ng/mL IL-23 (EC90); 5 h. The method, boiled down:
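IC50 values were fitted with a 4-parameter Hill equation to luciferase signal, scaled between IL-23-only wells (0% inhibition) and 30 μM reference inhibitor (100%). The readout was a STAT-inducible reporter in IL-23R/IL-12Rβ1 HEK293 cells, stimulated with added 10 ng/mL IL-23 (EC90) for 5 h at 37° C and developed with BioGlo.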

Experimental findings from US20260250320A1, “LIPIDATED PEPTIDE INHIBITORS OF INTERLEUKIN-23 RECEPTOR” (Janssen Pharmaceutica NV, priority 2023, published 2026) are described below.

*1 amine or outer side, *2 acyl side, *3 side chain or, on linkers, in order; H or OH if unused. Where a SMILES comes first, the peptide text is derived from it. Bridges are numbered along the chain shown (N, C = ends). Roman numbers before positions name the chains, in order. Side-chain parts run from the residue outwards. [ ]: non-standard residue; d: D form. The star is where a group is joined. ξ: configuration not given here. X25 = C[N+](C)(C)C[C@@H](CC(=O)O)NC(=O)CCC(=O)CCCCC[C@H](N[*:1])C(=O)[*:2]; X19 = CC(C)(S[*:2])[C@H](N[*:3])C(=O)C[C@@H](Cc1ccc(OCCN)cc1)C(=O)[*:1]; X39 = O=C(O)CCCCCCCCCCCCCCCCC(=O)NC(CCC(=O)NCCCCCOCC(=O)*)C(=O)O; Trp(7-Me) = Cc1cccc2c(C[C@H](N)C(=O)O)c[nH]c12; C18 diacid = O=C(O)CCCCCCCCCCCCCCCCC(=O)*; γGlu = O=C(O)[C@H](CCC(=O)[*:2])N[*:1]; 2Nal = N[C@@H](Cc1ccc2ccccc2c1)C(=O)O; AEF = NCCOc1ccc(C[C@H](N)C(=O)O)cc1; ξγGlu = O=C(O)C(CCC(=O)[*:2])N[*:1]; X2 = C[N+](C)(C)C[C@@H](CC(=O)O)N*; 3Pal = N[C@@H](Cc1cccnc1)C(=O)O; NMeK = CN[C@@H](CCCCN)C(=O)O; Pen = CC(C)(S)[C@H](N)C(=O)O; Suc = O=C(CCC(=O)[*:2])[*:1]; Thp = NC1(C(=O)O)CCOCC1; AEEA = NCCOCCOCC(=O)O; ξK = NCCCCC(N)C(=O)O; Sar = CNCC(=O)O

Regarding `CC(=O)N[C@H](CCCNC(=N)N)C(=O)N[C@@H]1C(=O)N[C@@H](CC(N)=O)C(=O)N[C@@H]([C@@H](C)O)C(=O)N[C@@H](Cc2c[nH]c3c(C)cccc23)C(=O)N[C@@H](CCCCNC(=O)COCCOCCNC(=O)COCCOCCNC(=O)CC[C@H](NC(=O)CCCCCCCCCCCCCCCCC(=O)O)C(=O)O)C(=O)N[C@H](C(=O)N[C@@H](Cc2ccc(OCCNC(=O)CCC(=O)N[C@H](CC(=O)O)C[N+](C)(C)C)cc2)C(=O)N[C@@H](Cc2ccc3ccccc3c2)C(=O)NC2(C(=O)N[C@@H](CCC(=O)O)C(=O)N[C@@H](CC(N)=O)C(=O)N[C@@H](Cc3cccnc3)C(=O)N(C)CC(N)=O)CCOCC2)C(C)(C)SSC1(C)C` [compound 36, MeCO-r-Pen(3)-N-T-7MeW-K(PEG2PEG2gEC18OH)-Pen(3)-AEF(d)-2Nal-THP-E-N-3Pya-Sar-CONH2] (Ac-[dR][Pen]NT[Trp(7-Me)]K([AEEA-AEEA-γGlu-C18 diacid])[Pen][AEF]([Suc-X2])[2Nal][Thp]EN[3Pal][Sar]-NH2; disulfide 2-7), the results for the IC50 (in assay [1]; against IL-23R) were under 0.5 nM and 50 to 500 nM, respectively.
On the same counts, the results for `CC(=O)NCCCC[C@@H]1NC(=O)[C@H](Cc2c[nH]c3c(C)cccc23)NC(=O)[C@H]([C@@H](C)O)NC(=O)[C@H](CCCCCC(=O)CCC(=O)N[C@H](CC(=O)O)C[N+](C)(C)C)NC(=O)[C@@H](NC(=O)[C@@H](CCCNC(=N)N)NC(C)=O)C(C)(C)SSC(C)(C)[C@@H](C(=O)C[C@@H](Cc2ccc(OCCN)cc2)C(=O)N[C@@H](Cc2ccc3ccccc3c2)C(=O)NC2(C(=O)N[C@@H](CCCCNC(=O)COCCOCCNC(=O)COCCOCCNC(=O)CC[C@H](NC(=O)CCCCCCCCCCCCCCCCC(=O)O)C(=O)O)C(=O)N[C@@H](CC(N)=O)C(=O)N[C@@H](Cc3cccnc3)C(=O)N(C)CC(N)=O)CCOCC2)NC1=O` [compound 37, MeCO-r-Pen(3)-K(d)-T-7MeW-K(Ac)-Pen(3)-AEF-2Nal-THP-K(PEG2PEG2gEC18OH)-N-3Pya-Sar-CONH2] (I: [2Nal][Thp]K([AEEA-AEEA-γGlu-C18 diacid])N[3Pal][Sar]-NH2 / II: Ac-[dR][Pen][X25]T[Trp(7-Me)]K(Ac); linker I:N-II:2-II:C via X19) are under 0.5 nM and under 50 nM.
The corresponding values for `CC(=O)N[C@H](CCCNC(=N)N)C(=O)N[C@@H]1C(=O)N[C@@H](CC(N)=O)C(=O)N[C@@H]([C@@H](C)O)C(=O)N[C@@H](Cc2c[nH]c3c(C)cccc23)C(=O)N[C@@H](CCC(N)=O)C(=O)N[C@H](C(=O)N[C@@H](Cc2ccc(OCCN)cc2)C(=O)N[C@@H](Cc2ccc3ccccc3c2)C(=O)NC2(C(=O)N[C@@H](CCC(=O)O)C(=O)N[C@@H](CC(N)=O)C(=O)N[C@@H](Cc3cccnc3)C(=O)N(C)CC(=O)N[C@@H](CCCCNC(=O)COCCOCCNC(=O)COCCOCCNC(=O)CC[C@H](NC(=O)CCCCCCCCCCCCCCCCC(=O)O)C(=O)O)C(=O)O)CCOCC2)C(C)(C)SSC1(C)C` [compound 38, MeCO-r-Pen(3)-N-T-7MeW-Q-Pen(3)-AEF-2Nal-THP-E-N-3Pya-Sar-K(PEG2PEG2gEC18OH)-CONH2] (Ac-[dR][Pen]NT[Trp(7-Me)]Q[Pen][AEF][2Nal][Thp]EN[3Pal][Sar]K([AEEA-AEEA-γGlu-C18 diacid])-OH; disulfide 2-7) are under 0.5 nM and under 50 nM.
On the same counts, the results for `CC(=O)NCCCCC1NC(=O)[C@H](Cc2c[nH]c3c(C)cccc23)NC(=O)[C@H]([C@@H](C)O)NC(=O)[C@H](CC(N)=O)NC(=O)[C@@H](NC(=O)[C@H](CCCCNC(=O)COCCOCCNC(=O)COCCOCCNC(=O)CC[C@H](NC(=O)CCCCCCCCCCCCCCCCC(=O)O)C(=O)O)NC(C)=O)C(C)(C)SSC(C)(C)[C@@H](C(=O)N[C@@H](Cc2ccc(OCCN)cc2)C(=O)N[C@@H](Cc2ccc3ccccc3c2)C(=O)NC2(C(=O)N[C@@H](CCCCNC(C)=O)C(=O)N[C@@H](CC(N)=O)C(=O)N[C@@H](Cc3cccnc3)C(=O)N(C)CC(N)=O)CCOCC2)NC1=O` (stereo partly drawn) [compound 39, MeCO-K(PEG2PEG2gEC18OH)-Pen(3)-N-T-7MeW-K(Ac)-Pen(3)-AEF-2Nal-THP-K(Ac)-N-3Pya-Sar-CONH2] (Ac-K([AEEA-AEEA-γGlu-C18 diacid])[Pen]NT[Trp(7-Me)][ξK](Ac)[Pen][AEF][2Nal][Thp]K(Ac)N[3Pal][Sar]-NH2; disulfide 2-7) are under 0.5 nM and under 50 nM.
For the compound `CC(=O)NCCCC[C@@H]1NC(=O)[C@H](Cc2c[nH]c3c(C)cccc23)NC(=O)[C@H]([C@@H](C)O)NC(=O)[C@H](CC(N)=O)NC(=O)[C@@H](NC(=O)[C@@H](CCCNC(=N)N)NC(C)=O)C(C)(C)SSC(C)(C)[C@@H](C(=O)N[C@@H](Cc2ccc(OCCN)cc2)C(=O)N[C@@H](Cc2ccc3ccccc3c2)C(=O)NC2(C(=O)N[C@@H](CCCCNC(=O)CCC(=O)N[C@H](CC(=O)O)C[N+](C)(C)C)C(=O)N[C@@H](CC(N)=O)C(=O)N[C@@H](Cc3cccnc3)C(=O)N(C)[C@@H](CCCCNC(=O)COCCOCCNC(=O)COCCCCCNC(=O)CCC(NC(=O)CCCCCCCCCCCCCCCCC(=O)O)C(=O)O)C(N)=O)CCOCC2)NC1=O` (some centres unmarked) [compound 41, MeCO-r-Pen(3)-N-T-7MeW-K(Ac)-Pen(3)-AEF-2Nal-THP-K(d)-N-3Pya-NMeK(PEG2PEG2gEC18OH)-CONH2] (Ac-[dR][Pen]NT[Trp(7-Me)]K(Ac)[Pen][AEF][2Nal][Thp]K([Suc-X2])N[3Pal][NMeK]([AEEA-X39])-NH2; disulfide 2-7), the IC50 was under 0.5 nM in assay [1] and 50 to 500 nM against IL-23R.
On the same counts, the results for `CC(=O)NCCCC[C@@H]1NC(=O)[C@H](Cc2c[nH]c3c(C)cccc23)NC(=O)[C@H]([C@@H](C)O)NC(=O)[C@H](CC(N)=O)NC(=O)[C@@H](NC(=O)[C@@H](CCCCNC(=O)COCCOCCNC(=O)COCCOCCNC(=O)CCC(NC(=O)CCCCCCCCCCCCCCCCC(=O)O)C(=O)O)NC(C)=O)C(C)(C)SSC(C)(C)[C@@H](C(=O)N[C@@H](Cc2ccc(OCCN)cc2)C(=O)N[C@@H](Cc2ccc3ccccc3c2)C(=O)NC2(C(=O)N[C@@H](CCC(=O)O)C(=O)N[C@@H](CC(N)=O)C(=O)N[C@@H](Cc3cccnc3)C(=O)N(C)[C@@H](CCCCNC(=O)CCC(=O)N[C@H](CC(=O)O)C[N+](C)(C)C)C(N)=O)CCOCC2)NC1=O` (some centres unmarked) [compound 42, MeCO-k(PEG2PEG2gEC18OH)-Pen(3)-N-T-7MeW-K(Ac)-Pen(3)-AEF-2Nal-THP-E-N-3Pya-NMeK(d)-CONH2] (Ac-[dK]([AEEA-AEEA-ξγGlu-C18 diacid])[Pen]NT[Trp(7-Me)]K(Ac)[Pen][AEF][2Nal][Thp]EN[3Pal][NMeK]([Suc-X2])-NH2; disulfide 2-7) are under 0.5 nM and under 50 nM.
On the same counts, the results for `CC(=O)NCCCC[C@@H]1NC(=O)[C@H](Cc2c[nH]c3c(C)cccc23)NC(=O)[C@H]([C@@H](C)O)NC(=O)[C@H](CC(N)=O)NC(=O)[C@@H](NC(=O)C(CCCNC(=N)N)CC(=O)COCCOCCNC(=O)COCCOCCNC(=O)CC[C@H](NC(=O)CCCCCCCCCCCCCCCCC(=O)O)C(=O)O)C(C)(C)SSC(C)(C)[C@@H](C(=O)N[C@@H](Cc2ccc(OCCN)cc2)C(=O)N[C@@H](Cc2ccc3ccccc3c2)C(=O)NC2(C(=O)N[C@@H](CCC(=O)O)C(=O)N[C@@H](CC(N)=O)C(=O)N[C@@H](Cc3cccnc3)C(=O)N(C)[C@@H](CCCCNC(=O)CCC(=O)N[C@H](CC(=O)O)C[N+](C)(C)C)C(N)=O)CCOCC2)NC1=O` (some centres unmarked) [compound 43, HOC18gEPEG2PEG2CO-r-Pen(3)-N-T-7MeW-K(Ac)-Pen(3)-AEF-2Nal-THP-E-N-3Pya-NMeK(d)-CONH2] are under 0.5 nM and under 50 nM.
